Experimental data published in publication PMC5108564, “Use of ferrous iron by metallo-β-lactamases” (Journal of Inorganic Biochemistry, 2016).
Several values for one entry are separate records, joined by “and”; a condition that tells them apart may be missing. Identical values can stand only once.

Columns and labels:
di-Zn(II) BcII [1] = target: T1, di-Zn(II) BcII (Bacillus cereus, UniProt P04190); test: Inhibition assay with nitrocefin as reporter substrate; format: biochemical
T1 construct: made in house; host or cells: E. coli BL21(DE3)pLysS
T1 sequence (P04190 31-257): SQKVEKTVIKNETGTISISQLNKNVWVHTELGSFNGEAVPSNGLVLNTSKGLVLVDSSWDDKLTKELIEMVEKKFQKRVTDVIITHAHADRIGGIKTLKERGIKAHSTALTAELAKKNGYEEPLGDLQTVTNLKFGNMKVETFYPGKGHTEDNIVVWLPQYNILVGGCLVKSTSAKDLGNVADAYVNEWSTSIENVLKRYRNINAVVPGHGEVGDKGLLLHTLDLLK
Description: (§1) Enzyme concentrations were the same as those employed in equilibrium kinetic studies. […] Residual enzyme activity was determined for a range of inhibitor concentrations. Non-linear regression fitting of IC50 curves was carried out using a three-parameter dose-response curve in GraphPad Prism. Errors are expressed as: σlogIC50/logIC50×IC50 .
(§2) MBL inhibition is a current target for medicinal chemistry, [63]. Given the observed differences in metal binding geometries between the di-Fe(II) and di-Zn(II) form of BcII and in the kinetic properties of di-Fe(II) BcII and VIM-2 compared to their di-Zn(II) enzymes, we then investigated whether the two metal-substituted BcII enzymes might respond differently to known MBL inhibitors (Table 3 and Fig. S12). We were particularly interested to see if the two enzyme forms responded differently to thiol-based MBL inhibitors, since the sulfur often bridges the two metal centres as an analogue of the bridging water during inhibition, [64].

di-Fe(II) BcII [2] = target: T2, di-Fe(II) BcII (Bacillus cereus, UniProt P04190); test: as above; format: biochemical
T2 construct: made in house; host or cells: E. coli BL21(DE3)pLysS
T2 sequence (P04190 31-257): as above
Description: as §1, §2

di-Zn(II) VIM-2 [3] = target: T3, di-Zn(II) VIM-2 (Pseudomonas aeruginosa, UniProt Q9K2N0); conditions: meropenem as substrate, VIM-2 Zn(II), [E] 5 nM
Description: (§5) Steady-state kinetic studies were carried out using a Pherastar FS microplate reader and UV-Star 96 well clear microplates (Greiner Bio-One). Samples of 1 mM apo-enzyme were pre-incubated with two equivalents of TCEP·HCl for 5 min prior to addition of 3.5 equivalents of the desired metal before dilution to concentrations required for kinetic assays. For Fe(II)-substituted enzymes, plates were prepared at ≤ 2 ppm O2 using deoxygenated buffer and sealed prior to absorbance readings. […] Substrate concentrations ranged between 400 μM and 0.4 μM. The Michaelis-Menten equation was fitted to data by non-linear regression using GraphPad Prism software to calculate the Michaelis-Menten constant and the limiting rate [43].

di-Fe(II) VIM-2 [4] = target: T4, di-Fe(II) VIM-2 (Pseudomonas aeruginosa, UniProt Q9K2N0); conditions: meropenem as substrate, VIM-2 Fe(II), [E] 30 nM, low O2
Description: as §5

di-Zn(II) BcII [5] = target: T1, di-Zn(II) BcII; test: Stopped-flow UV/Vis absorption kinetics of nitrocefin hydrolysis; format: biochemical; conditions: for Substrate Decay: 1:1 enzyme:nitrocefin, 5 °C; for Product accumulation: 1:1, 5 °C
Description: (§3) All metal solutions and metal-substituted enzymes for stopped-flow kinetics were prepared at ≤ 40 ppm O2 using deoxygenated buffers. Buffers used were: 50 mM HEPES pH 7.5, 200 mM NaCl; 50 mM MES pH 6.5, 200 mM NaCl; 50 mM MES pH 5.5, 200 mM NaCl. All buffers were treated with Chelex 100 to remove residual metal ions. Aliquots of apo-enzyme were diluted to 100 μM by addition of reaction buffer (1 mL final volume). The enzyme was incubated with two equivalents of tris(2-carboxyethyl)phosphine hydrochloride salt (TCEP·HCl), by addition of 2 μL of a 100 mM stock, for 5 min. Metal-substituted enzymes were then produced by the addition of 3.5 equivalents of metal salt to the apo-enzyme (3.5 μL of a 100 mM stock in buffer). […] Spectra were recorded over 100 s using a photodiode-array detector. Subsequent analysis of kinetic traces was carried out using Origin 8.5 [41]. Curves corresponding to substrate depletion (390 nm) and product accumulation (485 nm) were fitted by a single exponential function, whilst 665 nm features were fitted by a double exponential function.
(§4) Note that difference spectra were employed to identify the λmax of the feature and indicate that the feature corresponds to an independent species. […] Thus the observation of a visible reaction intermediate absorbing at 665 nm depends on the particular metal-enzyme combination employed.

di-Fe(II) BcII [6] = target: T2, di-Fe(II) BcII; test: as above; format: biochemical; set-up: k1 / k-1 / k2 / k3 / k4 / k5: unit not given here; conditions: for Substrate Decay / Product accumulation / Intermediate Decay / Intermediate accumulation: Fe(II), 1:1, 5 °C; for k1: 50 µM enzyme, 50 µM nitrocefin
Description: as §3, §4
The observation of an intermediate at 665 nm with di-Fe(II) BcII strongly correlates with increasing pH, with a larger change in absorbance amplitude at pH 7.5 (ΔAbsmax at pH 7.5 is 0.25 compared to ΔAbsmax at pH 6.5 and 5.5 of 0.15 and 0.05, respectively, Fig. 2 & Figs. S4–5). […] Data fitting using the Kintek Explorer package was unable to distinguish between linear and branched pathways (Fig. S11), but in both fittings the decay of the intermediate species was identified as the rate-limiting step (k3 and k4 in Tables S4 and S5, respectively). Although intermediate decay is apparently rate limiting, a negligible amount of intermediate is seen at pH 5.5. This may be explained either by a branched pathway, in which the branch with no intermediate is favoured by lower pH, or by a linear pathway in which the rate of decay of the intermediate rises with a decrease in pH thus preventing an observable accumulation of intermediate.

di-Zn(II) VIM-2 [7] = target: T3, di-Zn(II) VIM-2; test: as above; format: biochemical; set-up: His-tag (3C protease site) (N, cleaved yes); made in house; host or cells: E. coli BL21(DE3)pLysS; conditions: 1:1, 5 °C
Description: as §3, §4

di-Fe(II) VIM-2 [8] = target: T4, di-Fe(II) VIM-2; test: as above; format: biochemical; set-up: His-tag (3C protease site) (N, cleaved yes); made in house; host or cells: E. coli BL21(DE3)pLysS; conditions: 1:1, 5 °C
Description: as §3, §4

[9] = system: C[C@@H](O)[C@H]1C(=O)N2C(C(=O)O)=C(S[C@@H]3CN[C@H](C(=O)N(C)C)C3)[C@H](C)[C@H]12; test: purified protein, by the assay type; conditions: other: meropenem as substrate, [E] 2 nM
Description: as §5

[10] = system: O=C(Cc1cccs1)N[C@@H]1C(=O)N2C(C(=O)O)=C(/C=C/c3ccc([N+](=O)[O-])cc3[N+](=O)[O-])CS[C@H]12; test: purified protein, by the assay type; conditions: other: nitrocefin as substrate
[11] = Kintek Explorer fit, branched mechanism, pH 7.5, 5°C
[12] = Kintek Explorer fit, linear mechanism, pH 7.5, 5°C

O=C(O)CN(CCN(CC(=O)O)CC(=O)O)CC(=O)O [EDTA]
IC50 (di-Zn(II) BcII [1]): 7500 ± 300 µM
IC50 (di-Fe(II) BcII [2]): 4700 ± 100 µM

O=C(O)/C(S)=C/c1c(Cl)ccc(Cl)c1Cl [ML302F]
IC50 (di-Zn(II) BcII [1]): 0.046 ± 0.001 µM
IC50 (di-Fe(II) BcII [2]): 0.38 ± 0.08 µM
fold difference in IC50 (di-Fe(II) BcII [2]; di-Fe(II) BcII versus di-Zn(II) BcII): ~10 fold

O=C(O)C(S)c1ccccc1 (stereo not shown) [Thiomandelic acid]
IC50 (di-Zn(II) BcII [1]): 1.3 ± 0.3 µM
IC50 (di-Fe(II) BcII [2]): 2.8 ± 0.8 µM

C[C@@H](O)[C@H]1C(=O)N2C(C(=O)O)=C(S[C@@H]3CN[C@H](C(=O)N(C)C)C3)[C@H](C)[C@H]12 [meropenem]
Km (di-Zn(II) VIM-2 [3]): 10 ± 2 µM
kcat (di-Zn(II) VIM-2 [3]): 2.4 ± 0.1 s⁻¹
Km (di-Fe(II) VIM-2 [4]): 16 ± 2 µM
kcat (di-Fe(II) VIM-2 [4]): 0.5 ± 0.0 s⁻¹

O=C(Cc1cccs1)N[C@@H]1C(=O)N2C(C(=O)O)=C(/C=C/c3ccc([N+](=O)[O-])cc3[N+](=O)[O-])CS[C@H]12 [nitrocefin]
Substrate Decay (di-Zn(II) BcII [5]; pH 5.5, 390 nm): 4.16 s⁻¹ and 4.16 ± 0.01 s⁻¹
Product accumulation (di-Zn(II) BcII [5]; pH 5.5, 485 nm): 4.13 ± 0.01 s⁻¹
Substrate Decay (di-Zn(II) BcII [5]; pH 6.5, 390 nm): 3.24 ± 0.01 s⁻¹
Product accumulation (di-Zn(II) BcII [5]; pH 6.5, 485 nm): 3.29 ± 0.01 s⁻¹
Substrate Decay (di-Zn(II) BcII [5]; pH 7.5, 390 nm): 2.55 s⁻¹ and 2.55 ± 0.01 s⁻¹
Product accumulation (di-Zn(II) BcII [5]; pH 7.5, 485 nm): 2.75 ± 0.01 s⁻¹
Substrate Decay (di-Fe(II) BcII [6]; pH 5.5, 390 nm): 3.88 s⁻¹ and 3.88 ± 0.01 s⁻¹
Product accumulation (di-Fe(II) BcII [6]; pH 5.5, 485 nm): 5.78 ± 0.01 s⁻¹
Substrate Decay (di-Fe(II) BcII [6]; pH 6.5, 390 nm): 5.25 ± 0.01 s⁻¹
Product accumulation (di-Fe(II) BcII [6]; pH 6.5, 485 nm): 4.27 ± 0.01 s⁻¹
Intermediate Decay (di-Fe(II) BcII [6]; pH 6.5, 665 nm): 1.2 ± 0.1 s⁻¹
Intermediate accumulation (di-Fe(II) BcII [6]; pH 6.5, 665 nm): 18.31 ± 0.01 s⁻¹
Substrate Decay (di-Fe(II) BcII [6]; pH 7.5, 390 nm): 7.25 s⁻¹ and 7.25 ± 0.01 s⁻¹
Product accumulation (di-Fe(II) BcII [6]; pH 7.5, 485 nm): 7.20 ± 0.01 s⁻¹
Intermediate Decay (di-Fe(II) BcII [6]; pH 7.5, 665 nm): 1.4 ± 0.1 s⁻¹
Intermediate accumulation (di-Fe(II) BcII [6]; pH 7.5, 665 nm): 20.32 ± 0.01 s⁻¹
k1 (di-Fe(II) BcII [6]; [11]): 239000
k2 (di-Fe(II) BcII [6]; [11]): 46
k3 (di-Fe(II) BcII [6]; [11]): 73.4
k-1 (di-Fe(II) BcII [6]; [11]): 0.0000001
k5 (di-Fe(II) BcII [6]; Kintek Explorer fit, branched mechanism, pH 7.5, 5°C, fixed): 100000000
k4 (di-Fe(II) BcII [6]; Kintek Explorer fit, branched mechanism, pH 7.5, 5°C, intermediate decay, rate-limiting): 4.18
k1 (di-Fe(II) BcII [6]; [12]): 225000
k2 (di-Fe(II) BcII [6]; [12]): 82.7
k-1 (di-Fe(II) BcII [6]; [12]): 0.000000403
k4 (di-Fe(II) BcII [6]; Kintek Explorer fit, linear mechanism, pH 7.5, 5°C, fixed): 100000000
k3 (di-Fe(II) BcII [6]; Kintek Explorer fit, linear mechanism, pH 7.5, 5°C, intermediate decay, rate-limiting): 7.2
Substrate Decay (di-Zn(II) VIM-2 [7]; pH 5.5, 390 nm): 190 s⁻¹ and 190 ± 4 s⁻¹
Product accumulation (di-Zn(II) VIM-2 [7]; pH 5.5, 485 nm): 93 ± 2 s⁻¹
Intermediate Decay (di-Zn(II) VIM-2 [7]; pH 5.5, 665 nm): 120 ± 10 s⁻¹
Intermediate accumulation (di-Zn(II) VIM-2 [7]; pH 5.5, 665 nm): 220 ± 20 s⁻¹
Substrate Decay (di-Zn(II) VIM-2 [7]; pH 6.5, 390 nm): 290 ± 10 s⁻¹
Product accumulation (di-Zn(II) VIM-2 [7]; pH 6.5, 485 nm): 130 ± 4 s⁻¹
Intermediate Decay (di-Zn(II) VIM-2 [7]; pH 6.5, 665 nm): 160 ± 30 s⁻¹
Intermediate accumulation (di-Zn(II) VIM-2 [7]; pH 6.5, 665 nm): 320 ± 80 s⁻¹
Substrate Decay (di-Zn(II) VIM-2 [7]; pH 7.5, 390 nm): 320 s⁻¹ and 320 ± 30 s⁻¹
Product accumulation (di-Zn(II) VIM-2 [7]; pH 7.5, 485 nm): 140 ± 5 s⁻¹
Intermediate Decay (di-Zn(II) VIM-2 [7]; pH 7.5, 665 nm): 180 ± 50 s⁻¹
Substrate Decay (di-Fe(II) VIM-2 [8]; pH 5.5, 390 nm): 35 s⁻¹ and 35 ± 1 s⁻¹
Product accumulation (di-Fe(II) VIM-2 [8]; pH 5.5, 485 nm): 23.4 ± 0.5 s⁻¹
Substrate Decay (di-Fe(II) VIM-2 [8]; pH 6.5, 390 nm): 0.24 s⁻¹ and 0.24 ± 0.01 s⁻¹
Product accumulation (di-Fe(II) VIM-2 [8]; pH 6.5, 485 nm): 0.44 ± 0.01 s⁻¹
Substrate Decay (di-Fe(II) VIM-2 [8]; pH 7.5, 390 nm): 0.15 s⁻¹ and 0.15 ± 0.01 s⁻¹
Product accumulation (di-Fe(II) VIM-2 [8]; pH 7.5, 485 nm): 0.35 ± 0.01 s⁻¹

di-Fe(II) BcII (Bacillus cereus)
Km ([9]; BcII Fe(II), low O2): 230 ± 30 µM
kcat ([9]; BcII Fe(II), low O2): 38 ± 2 s⁻¹
kcat/Km ([9]; BcII Fe(II), low O2): 0.17 µM⁻¹ s⁻¹
Km ([10]; BcII Fe(II), [E] 2 nM, low O2): 11 ± 2 µM
kcat ([10]; BcII Fe(II), [E] 2 nM, low O2): 12.5 s⁻¹
kcat/Km ([10]; BcII Fe(II), [E] 2 nM, low O2): 1.2 µM⁻¹ s⁻¹

di-Fe(II) VIM-2 (Pseudomonas aeruginosa)
Km ([10]; VIM-2 Fe(II), [E] 1 nM, low O2): 32 ± 5 µM
kcat ([10]; VIM-2 Fe(II), [E] 1 nM, low O2): 44 s⁻¹
kcat/Km ([10]; VIM-2 Fe(II), [E] 1 nM, low O2): 1.4 µM⁻¹ s⁻¹

di-Zn(II) BcII (Bacillus cereus)
Km ([9]; BcII Zn(II)): 220 ± 20 µM
kcat ([9]; BcII Zn(II)): 89 ± 3 s⁻¹
kcat/Km ([9]; BcII Zn(II)): 0.40 µM⁻¹ s⁻¹
Km ([10]; BcII Zn(II), [E] 2 nM): 12 ± 2 µM
kcat ([10]; BcII Zn(II), [E] 2 nM): 10.1 s⁻¹
kcat/Km ([10]; BcII Zn(II), [E] 2 nM): 0.82 µM⁻¹ s⁻¹

di-Zn(II) VIM-2 (Pseudomonas aeruginosa)
Km ([10]; VIM-2 Zn(II), [E] 0.1 nM): 9 ± 1 µM
kcat ([10]; VIM-2 Zn(II), [E] 0.1 nM): 143 s⁻¹
kcat/Km ([10]; VIM-2 Zn(II), [E] 0.1 nM): 16 µM⁻¹ s⁻¹
